Literature values, collected in patent EP0615447B1, “SLOW-RELEASE FLURBIPROFEN-CONTAINING MEDICAMENT AND ITS USE” (ALFATEC-PHARMA GmbH, priority 1991, dated 1993).

How the values were obtained:
[1] = in vivo
[2] = water
[3] = aqueous medium; compared with the racemate

CC(C(=O)O)c1ccc(-c2ccccc2)c(F)c1 (racemic) [Flurbiprofen, 2-(2-Fluor-4-biphenylyl)propionsäure]
Plasmahalbwertszeit [1]: 3,9 h | pKA: 4,16 | Löslichkeit in Wasser [2]: 32,5 mg/l

CC(C(=O)O)c1ccc(-c2ccccc2)c(F)c1 (racemic) [Pseudoracemat]
Auflösungsgeschwindigkeit [3]: wesentlich höher
